Assay results as given in patent US7291580B2, “6-(1,1-difluoroalkyl)-4-aminopicolinates and their use as herbicides” (Dow AgroSciences LLC, priority 2004, dated 2007).

Assays:
[1] = system: Giant Foxtail (Setaria faberi); experiment: Preemergence herbicidal activity; type: in vivo; details: rate 560 ppm; visual score after 3 weeks, 0 = no injury, 100 = complete kill or no germination
Procedure: (§1) The soil matrix was contained in plastic pots with a surface area of 113 square centimeters. […] The stock solutions obtained were diluted with a 99.9:0.1 mixture of water and Tween® […] surfactant to obtain application solutions of known concentration. […] A 2.5 mL aliquot of each solution of known concentration was sprayed evenly onto the soil surface (113 sq. cm) of each seeded pot using a Cornwall 5.0 mL glass syringe fitted with a TeeJet TN-3 hollow cone nozzle to obtain thorough coverage of the soil in each pot. […] The water was added by top-irrigation.

[2] = system: Lambsquarter (Chenopodium album); experiment: Preemergence herbicidal activity; type: in vivo; details: rate 560 ppm; visual score after 3 weeks, 0 = no injury, 100 = complete kill or no germination
Procedure: as §1

[3] = system: Ivyleaf Morningglory (Ipomoea hederacea); experiment: Preemergence herbicidal activity; type: in vivo; details: rate 560 ppm; visual score after 3 weeks, 0 = no injury, 100 = complete kill or no germination
Procedure: as §1

[4] = system: Crabgrass (large) (Digitaria sanguinalis); experiment: Preemergence herbicidal activity; type: in vivo; details: rate 560 ppm; visual score after 3 weeks, 0 = no injury, 100 = complete kill or no germination
Procedure: as §1

[5] = system: Pigweed (redroot) (Amaranthus retroflexus); details: rate 123 (unit not given); visual score after 2 weeks, 0 = no injury, 100 = complete kill
Procedure: (§2) Seeds of the desired test plant species were planted in Grace-Sierra MetroMix® 306 planting mixture, which typically has a pH of 6.0 to 6.8 and an organic matter content of about 30 percent, in plastic pots with a surface area of 64 square centimeters. […] The plants were grown for 7-21 days in a greenhouse with an approximate 15 hr photoperiod which was maintained at about 23-29° C. during the day and 22-28° C. during the night. Nutrients and water were added on a regular basis and supplemental lighting was provided with overhead metal halide 1000-Watt lamps as necessary. The plants were employed for testing when they reached the first or second true leaf stage.
(§3) A weighed amount, determined by the highest rate to be tested, of each test compound was placed in a 20 mL glass vial and was dissolved in 4 mL of a 97:3 v/v (volume/volume) mixture of acetone and dimethyl sulfoxide (DMSO) to obtain concentrated stock solutions. […]
(§4) The treated plants and control plants were placed in a greenhouse as described above and watered by sub-irrigation to prevent wash-off of the test compounds. After 2 weeks the condition of the test plants as compared with that of the untreated plants was determined visually and scored on a scale of 0 to 100 percent where 0 corresponds to no injury and 100 corresponds to complete kill.

[6] = system: Wheat (var.Merica) (Triticum aestivum); details: rate 123 (unit not given); crop selectivity to wheat; visual score after 2 weeks, 0 = no injury, 100 = complete kill
Procedure: as §2, §3, §4

[7] = system: Barnyardgrass (Echinochloa crus-galli); experiment: Postemergence herbicidal activity; type: in vivo; details: visual score after 2 weeks, 0 = no injury, 100 = complete kill
Procedure: as §2
(§5) A weighed amount, determined by the highest rate to be tested, of each test compound was placed in a 20 mL glass vial and was dissolved in 4 mL of a 97:3 v/v (volume/volume) mixture of acetone and dimethyl sulfoxide (DMSO) to obtain concentrated stock solutions. […] The concentrated stock solutions obtained were diluted with an aqueous mixture containing acetone, water, isopropyl alcohol, DMSO, Atplus 411F crop oil concentrate, and Triton X-155 surfactant in a 48.5:39:10:1.5:1.0:0.02 v/v ratio to obtain spray solutions of known concentration. The solutions containing the highest concentration to be tested were prepared by diluting 2 mL aliquots of the stock solution with 13 mL of the mixture and lower concentrations were prepared by serial dilution of the stock solution. Approximately 1.5 mL aliquots of each solution of known concentration were sprayed evenly onto each of the test plant pots using a DeVilbiss atomizer driven by compressed air pressure of 2 to 4 psi (140 to 280 kiloPascals) to obtain thorough coverage of each plant. Control plants were sprayed in the same manner with the aqueous mixture. In this test an application rate of 1 ppm results in the application of approximately 1 g/Ha.
as §4

[8] = system: Giant Foxtail (Setaria faberi); experiment: Postemergence herbicidal activity; type: in vivo; details: visual score after 2 weeks, 0 = no injury, 100 = complete kill
Procedure: as §2, §5, §4

[9] = system: Cocklebur (Xanthium strumarium); experiment: Postemergence herbicidal activity; type: in vivo; details: visual score after 2 weeks, 0 = no injury, 100 = complete kill
Procedure: as §2, §5, §4

[10] = system: Lambsquarter (Chenopodium album); experiment: Postemergence herbicidal activity; type: in vivo; details: visual score after 2 weeks, 0 = no injury, 100 = complete kill
Procedure: as §2, §5, §4

Row | Compound | Pre-emergent (% injury) SETFA [1] | Pre-emergent (% injury) CHEAL [2] | Pre-emergent (% injury) IPOHE [3] | Pre-emergent (% injury) DIGSA [4] | Post-emergent (% injury) AMARE [5] | Post-emergent (% injury) TRZAS [6] | Post-emergent (% injury) ECHCG ([7]; rate 245 ppm) | Post-emergent (% injury) SETFA ([8]; rate 245 ppm) | Post-emergent (% injury) XANST ([9]; rate 245 ppm) | Post-emergent (% injury) CHEAL ([10]; rate 123 (unit not given)) | Post-emergent (% injury) CHEAL ([10]; rate 245 ppm) | Post-emergent (% injury) ECHCG ([7]; rate 250 ppm) | Post-emergent (% injury) SETFA ([8]; rate 250 ppm) | Post-emergent (% injury) XANST ([9]; rate 250 ppm) | Post-emergent (% injury) CHEAL ([10]; rate 250 ppm)
1 | COC(=O)c1nc(C(C)(F)F)cc(N)c1Cl [Compound 1, Methyl 4-amino-3-chloro-6-(1,1-difluroethyl)pyridine-2-carboxylate] | 100% | 100% | 100% | 100% | 100% | 0% | 75% | 65% | 100% | 100% | 100% | – | – | – | –
2 | CC(F)(F)c1cc(N)c(Cl)c(C(=O)O)n1 [Compound 2, 4-amino-3-chloro-6-(1,1-difluoroethyl)pyridine-2-carboxylic acid] | 95% | 100% | 100% | 98% | – | – | – | – | – | – | – | 80% | 85% | 100% | 100%
